One data set concerns SMN. In words: Quantitative splicing assay (SMN) in SMA patient fibroblasts (GM03813), qPCR of SMN FL and SMN Δ7. In kind it is cell-based. The following applies: Homo sapiens, Fibroblast, 24 h, SMN FL mRNA by qPCR. The protocol: Spinal muscular atrophy (SMA) patient fibroblasts (GM03813, Coriell) were plated in 96-well plates at 50,000 cells/well. Immediately after plating, cells were dosed with compounds for 24 h at concentrations ranging from 2.5 μM to 0.6 nM (0.1% DMSO). Treated cells were lysed and cDNA synthesized using the Fast Advanced Cells-to-Ct kit (ThermoFisher A35378) according to the manufacturer's instructions. 2 μL of each cDNA were used in qPCR reactions. The qPCR reactions were prepared in 384-well plates in 10 μL volume, using TaqMan™ Fast Advanced Master Mix (ThermoFisher; 4444965) with primers and probes shown in the table below. Reactions were run in a Quant Studio 6 qPCR instrument with default settings.

The next data set has as its system MDR1. In words: MDCK-MDR1 permeability assay for blood-brain-barrier penetration potential (Papp, efflux ratio). It is filed as in vitro ADME. The following applies: dog; for Papp A→B at 120 min, 5 μM: MDCK-MDR1, apical to basolateral; for Papp A→B at 120 min, 5 μM / Papp B→A at 120 min, 5 μM: pH 7.4; for Papp B→A at 120 min, 5 μM: MDCK-MDR1, basolateral to apical; for efflux ratio at 120 min, 5 μM: MDCK-MDR1, pH 7.4, Efflux ratio = Papp (B-to-A)/Papp (A-to-B). As for the experimental part:
(§1) The dosing solution concentration was 5 μM of test article in the assay buffer. […] Each determination was performed in duplicate. […] All samples were assayed by LC-MS/MS using electrospray ionization. Analytical conditions are outlined below.
(§2) The apparent permeability (Papp) and percent recovery were calculated as follows: […]

For data set [1], the system named is MDR1-MDCK cell monolayers. The data set is described as above. In kind it is in vitro ADME. The following applies: 5 μM; for MDCK-MDR1: % Recov A-B: apical to basolateral; for MDCK-MDR1: % Recov A-B / MDCK-MDR1: % Recov B-A: 120 minutes, pH 7.4; for MDCK-MDR1: % Recov B-A: basolateral to apical. The protocol: as §1, §2
A further data set deals with SMN protein. In words: SMN protein assay (Mesoscale Discovery) in SMA patient fibroblasts (GM03813). As to conditions: 48 hours, MSD assay, read-out: SMN EC50 (SMN Protein Potency). It is filed as cell-based, human. As for the experimental part:
Compounds were tested on spinal muscular atrophy (SMA) patient fibroblasts (GM03813, Coriell) at doses ranging from 2.5 μM to 0.6 nM. 7000 cells/well were seeded in 96-well plates. Compounds were incubated for 48 hours and the cells were lysed with 100 μL of lysis buffer. 20 μL of lysate was used for SMN protein measurement by Mesoscale Discovery (MSD) assay developed by PharmOptima (Michigan). A standard curve prepared with SMN protein ranging from 1 μg/ml to 19.5 pg/ml was used in each MSD plate to calculate the absolute SMN protein amount in each sample.

The EC50 is the concentration giving half of the maximal effect. In general, Papp A→B refers to the apparent permeability from the apical to the basolateral side of a cell layer. By Papp B→A is commonly meant how fast a substance crosses the layer from the basolateral side. The efflux ratio is the permeability from basolateral to apical divided by that in the opposite direction, in the common usage.

On to `CN(c1cnc(-c2ccc(-c3cnn(C)c3)cc2O)nn1)[C@@H]1C[C@H]2CC[C@H](N2)[C@@H]1F` (single isomer, unassigned) [Compound 3A], for which the concentration for a half-maximal effect (EC50) in the data set with SMN lay within 0.01 to 15 nM. In addition, in the data set with MDR1, the Papp A→B at 120 min, 5 μM stood at 5.37 ×10⁻⁶ cm/s; the Papp B→A at 120 min, 5 μM was found to be 37.3 ×10⁻⁶ cm/s; the efflux ratio at 120 min, 5 μM worked out at 7. In data set [1], the “MDCK-MDR1: % Recov A-B” value is 67% and the “MDCK-MDR1: % Recov B-A” value worked out at 72%. Also, the concentration for a half-maximal effect (EC50) in the data set on SMN protein lay in the range of 15 to 50 nM.

For the compound `CN(C)C(=O)c1cc2cc(O)c(-c3ncc(N(C)[C@H]4C[C@@H]5CC[C@@H](N5)[C@H]4F)nn3)cc2o1` (single isomer, unassigned) [Compound 4B], in the data set on MDR1, the Papp A→B at 120 min, 5 μM came out at 3.05 ×10⁻⁶ cm/s; the basolateral-to-apical permeability (Papp B→A) at 120 min, 5 μM is 50 ×10⁻⁶ cm/s; the efflux ratio at 120 min, 5 μM is 16. In data set [1], the “MDCK-MDR1: % Recov A-B” value was found to be 91% and the “MDCK-MDR1: % Recov B-A” value turned out to be 101%.

In the case of `CN(c1cnc(-c2ccc(-c3ccn(C)c(=O)c3)cc2O)nn1)[C@H]1C[C@@H]2CC[C@@H](N2)[C@H]1F` (single isomer, unassigned) [Compound 1B], in the data set with MDR1, the apparent permeability from apical to basolateral (Papp A→B) at 120 min, 5 μM came out at 0.3 ×10⁻⁶ cm/s; the Papp B→A at 120 min, 5 μM came out at 46.4 ×10⁻⁶ cm/s; the efflux ratio at 120 min, 5 μM turned out to be 152. Besides, in data set [1], the “MDCK-MDR1: % Recov A-B” value was found to be 95% and the “MDCK-MDR1: % Recov B-A” value amounted to 84%. In the data set on SMN protein, the EC50 was in the range of 500 to 10000 nM.

With `CN(C)C(=O)c1cc2cc(O)c(-c3ncc(N(C)[C@@H]4C[C@H]5CC[C@H](N5)[C@@H]4F)nn3)cc2o1` (single isomer, unassigned) [Compound 4A], in data set [1], the “MDCK-MDR1: % Recov A-B” value was 89% and the “MDCK-MDR1: % Recov B-A” value is 96%. Further, in data set [1] (Efflux ratio = Papp (B-to-A)/Papp (A-to-B)), the “MDCK-MDR1: Efflux” value is on record as 26.

Take `CN(c1cnc(-c2ccc(-c3ccn(C)c(=O)c3)cc2O)nn1)[C@@H]1C[C@H]2CC[C@H](N2)[C@@H]1F` (single isomer, unassigned) [Compound 1A]: in the data set on MDR1, the Papp A→B at 120 min, 5 μM is 0.12 ×10⁻⁶ cm/s; the apparent permeability from basolateral to apical (Papp B→A) at 120 min, 5 μM stood at 37.8 ×10⁻⁶ cm/s; the efflux ratio at 120 min, 5 μM came out at 309. Further, in data set [1], the “MDCK-MDR1: % Recov A-B” value is recorded as 81% and the “MDCK-MDR1: % Recov B-A” value amounted to 94%. Besides, the concentration for a half-maximal effect (EC50) with SMN protein lay within 500 to 10000 nM.

Turning to `Cn1cc(-c2ccc(-c3ncc(O[C@H]4C[C@@H]5CCC[C@@H](N5)[C@H]4F)nn3)c(O)c2)cn1` (single isomer, unassigned) [Compound 5B], in the data set on MDR1, the apparent permeability from apical to basolateral (Papp A→B) at 120 min, 5 μM came to 10.2 ×10⁻⁶ cm/s; the Papp B→A at 120 min, 5 μM was 43.7 ×10⁻⁶ cm/s; the efflux ratio at 120 min, 5 μM came out at 4. In addition, in data set [1], the “MDCK-MDR1: % Recov A-B” value turned out to be 83% and the “MDCK-MDR1: % Recov B-A” value is reported as 90%. For the same compound, the concentration for a half-maximal effect (EC50) with SMN protein was 100 to 500 nM.

In the case of `CN(c1cnc(-c2ccc(-c3cn[nH]c3)cc2O)nn1)[C@H]1C[C@@H]2CC[C@@H](N2)[C@H]1F` (single isomer, unassigned) [Compound 2B], the concentration giving a half-maximal response (EC50) in the data set with SMN was in the range of 0.01 to 15 nM. In the data set on MDR1, the Papp A→B at 120 min, 5 μM was determined as 2.26 ×10⁻⁶ cm/s; the apparent permeability from basolateral to apical (Papp B→A) at 120 min, 5 μM is 53.4 ×10⁻⁶ cm/s; the efflux ratio at 120 min, 5 μM stood at 24. In data set [1], the “MDCK-MDR1: % Recov A-B” value was determined as 93% and the “MDCK-MDR1: % Recov B-A” value was determined as 96%. Besides, the EC50 with SMN protein lay in the range of 0.01 to 15 nM.

For the compound `CN(c1cnc(-c2ccc(-c3cn[nH]c3)cc2O)nn1)[C@@H]1C[C@H]2CC[C@H](N2)[C@@H]1F` (single isomer, unassigned) [Compound 2A], in the data set with MDR1, the Papp A→B at 120 min, 5 μM is 2.05 ×10⁻⁶ cm/s; the Papp B→A at 120 min, 5 μM is 39.8 ×10⁻⁶ cm/s; the efflux ratio at 120 min, 5 μM came to 19. Also, in data set [1], the “MDCK-MDR1: % Recov A-B” value was found to be 78% and the “MDCK-MDR1: % Recov B-A” value was 74%. Further, in the data set with SMN protein, the concentration for a half-maximal effect (EC50) lay within 500 to 10000 nM.

In the data set on SMN, `CN(c1cnc(-c2ccc(-c3cnn(C)c3)cc2O)nn1)[C@H]1C[C@@H]2CC[C@@H](N2)[C@H]1F` (single isomer, unassigned) [Compound 3B] had an EC50 of 0.01 to 15 nM. In the data set on MDR1, the Papp A→B at 120 min, 5 μM was found to be 4.3 ×10⁻⁶ cm/s; the apparent permeability from basolateral to apical (Papp B→A) at 120 min, 5 μM was found to be 37.8 ×10⁻⁶ cm/s; the efflux ratio at 120 min, 5 μM stood at 9. In data set [1], the “MDCK-MDR1: % Recov A-B” value came to 62% and the “MDCK-MDR1: % Recov B-A” value was determined as 76%. In the data set on SMN protein, the 50% effective concentration (EC50) was in the range of 0.01 to 15 nM.

As to `Cn1cc(-c2ccc(-c3ncc(O[C@@H]4C[C@H]5CCC[C@H](N5)[C@@H]4F)nn3)c(O)c2)cn1` (single isomer, unassigned) [Compound 5A], in the data set with MDR1, the Papp A→B at 120 min, 5 μM was 9 ×10⁻⁶ cm/s; the apparent permeability from basolateral to apical (Papp B→A) at 120 min, 5 μM was found to be 30.9 ×10⁻⁶ cm/s; the efflux ratio at 120 min, 5 μM turned out to be 3. Moreover, in data set [1], the “MDCK-MDR1: % Recov A-B” value is on record as 69% and the “MDCK-MDR1: % Recov B-A” value came out at 79%. Further, the 50% effective concentration (EC50) in the data set on SMN protein fell in the range of 500 to 10000 nM.
